From the supplement of paper PMC5412046 come the findings set out here.

Experiment [1] has as its system SB.mhdgc-1. The experiment is described as follows: AC50 for growth inhibition (viability) (log10 M); higher = less potent. The conditions noted are these: SB.mhdgc-1 (hereditary c.1380delA CDH1 gastric cancer). The procedure, abridged:
(§1)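 Hereditary or sporadic patient-derived gastric cancer cells (500 cells in 5 μL medium per 1536 well) received 23 nL compound in DMSO by pintool. Dosing was 11 threefold dilutions starting at a final 46 μM. After 48 h, CellTiter-Glo was added for 30 min at room temperature and luminescence read on a ViewLux. Log half-maximal activity concentration came from a four-parameter fit of DMSO-normalised viability, keeping only high-quality curve classes.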

For experiment [2], the system named is SB.msgc-1. The description is as above. The conditions noted are these: SB.msgc-1 (sporadic gastric cancer). In a few lines: as §1

On to `Nc1nc(F)nc2c1ncn2[C@@H]1O[C@H](CO)[C@@H](O)[C@H]1O` [2-Fluoroadenosine], for which the “AC50 for growth inhibition (log10 M)” value in experiment [1] and in experiment [2] was -6.23 each time.

In the case of `COc1cc([C@@H]2c3cc4c(cc3[C@@H](O)C3COC(=O)C32)OCO4)cc(OC)c1O` (some centres undefined) [4-Demethylepipodophyllotoxin], the “AC50 for growth inhibition (log10 M)” value in experiment [1] is -7.38; in experiment [2], -6.63.

`NC/1=N/C(=O)N(/C=N1)[C@@H]2O[C@H](CO)[C@@H](O)[C@H]2O` [5-Azacitidine]: the “AC50 for growth inhibition (log10 M)” value is -4.88 in experiment [1] and -5.53 in experiment [2].

Consider `CC(=O)O/N=C1/C(=C2\C(=O)Nc3cc(Br)ccc32)Nc2ccccc21` [6-Bromoindirubin-3'-acetoxime], for which the results for the “AC50 for growth inhibition (log10 M)” value in experiment [1] and in experiment [2] were -5.13 and -4.93, respectively.

Turning to `CN[C@@H]1C[C@H]2O[C@@](C)([C@@H]1OC)n1c3ccccc3c3c4c(c5c6ccccc6n2c5c31)C(=O)N[C@H]4O` [7-Hydroxystaurosporine], the figures for the “AC50 for growth inhibition (log10 M)” value in experiment [1] and in experiment [2] were -6.28 and -5.93, respectively.

On to `Nc1ncnc2c1nc(Cl)n2[C@@H]1O[C@H](CO)[C@@H](O)[C@H]1O` [8-Cl-Ado], for which the “AC50 for growth inhibition (log10 M)” value was -4.78 in experiment [1] and -4.68 in experiment [2].

Consider `CC(=O)O[C@@]12CO[C@@H]1C[C@H](O)[C@]3(C)[C@@H]2[C@H](OC(=O)C4=CC=CC=C4)[C@]5(O)C[C@H](O)/C(=C(/[C@@H](O)C3=O)C5(C)C)C` [10-Deacetylbaccatin], for which the “AC50 for growth inhibition (log10 M)” value in experiment [1] was -5.83; in experiment [2], -5.38.

Take `CC[C@@]1(O)C(=O)OCC/2=C1/C=C3\N(CC4=CC5=CC(=CC=C5N=C34)O)C2=O` [10-hydroxycamptothecin]: the “AC50 for growth inhibition (log10 M)” value was -7.83 in experiment [1] and -7.33 in experiment [2].

For the compound `CCCCC(C)(C)[C@H](O)/C=C/[C@H]1[C@H](O)CC(=O)[C@@H]1C/C=C\CCCC(=O)O` [16,16-dimethyl PGE2], the entries for the “AC50 for growth inhibition (log10 M)” value in experiment [1] and in experiment [2] were -4.68 and -4.63, respectively.

Turning to `COC[C@H]1OC(=O)C2=COC3=C2[C@@]1(C)\C4=C(\[C@@H]5CC[C@H](O)[C@@]5(C)C[C@H]4OC(C)=O)C3=O` [17_-hydroxy Wortmannin], the “AC50 for growth inhibition (log10 M)” value in experiment [1] is -5.53; in experiment [2], -5.58.

On to `C[C@](O)(CS(=O)(=O)c1ccc(F)cc1)C(=O)Nc1ccc(C#N)c(C(F)(F)F)c1` [(R)-Bicalutamide], for which the results for the “AC50 for growth inhibition (log10 M)” value in experiment [1] and in experiment [2] were -6.33 and -6.03, respectively.

`Cc1nc(NC(=O)N2CCC[C@H]2C(N)=O)sc1-c1csc(C(C)(C)C)n1` [A-66]: the “AC50 for growth inhibition (log10 M)” value in experiment [1] was -5.38; in experiment [2] it was -6.53.

On to `CC1(C)CCC(=C(\C1)C2=CC=C(Cl)C=C2)/CN3CCN(CC3)C4=CC(=C(C=C4)C(=O)N[S+]([O-])(=O)C5=CC=C(NCC6CCOCC6)C(=C5)[N+]([O-])=O)OC7=CN=C8[NH]C=CC8=C7` [ABT-199], for which the entries for the “AC50 for growth inhibition (log10 M)” value in experiment [1] and in experiment [2] were -4.73 and -4.88, respectively.

Turning to `CN(C)CC[C@H](CSc1ccccc1)Nc1ccc([S+](=O)([O-])NC(=O)c2ccc(N3CCN(Cc4ccccc4-c4ccc(Cl)cc4)CC3)cc2)cc1[N+](=O)[O-]` [ABT-737], the “AC50 for growth inhibition (log10 M)” value is -5.43 in experiment [1] and -5.03 in experiment [2].

As for `Cc1c(NC(=O)OC[C@@H]2COCCN2)cn2ncnc(Nc3ccc4c(cnn4Cc4cccc(F)c4)c3)c12` [AC-480], the figures for the “AC50 for growth inhibition (log10 M)” value in experiment [1] and in experiment [2] were -6.53 and -6.68, respectively.

As to `O=C(CCCCCCNC(=O)c1cnc(N(c2ccccc2)c2ccccc2)nc1)NO` [ACY-1215], the “AC50 for growth inhibition (log10 M)” value in experiment [1] was -5.23; in experiment [2] it was -5.08.

As for `CC(C)(C)c1cc(C=C(C#N)C#N)cc(Br)c1O` [AG-1024], the “AC50 for growth inhibition (log10 M)” value in experiment [1] is -5.03; in experiment [2], -5.43.

With `COc1cc2ncnc(Nc3cccc(Cl)c3)c2cc1OC` [AG-1478], the “AC50 for growth inhibition (log10 M)” value in experiment [1] is -7.43; in experiment [2], -6.23.

For the compound `O=C(O)c1ccc2cc(-c3ccc(O)c(C45CC6CC(CC(C6)C4)C5)c3)ccc2c1` [AHPN], the “AC50 for growth inhibition (log10 M)” value in experiment [1] is -6.48; in experiment [2] it was -4.83.

As for `c1ccc(-c2oc3ncnc(NC[C@@H]4CCCO4)c3c2-c2ccccc2)cc1` [AIM-100], the “AC50 for growth inhibition (log10 M)” value in experiment [1] is -5.08; in experiment [2], -5.73.

With `Cc1ccc(C(=O)Nc2cccc(C(F)(F)F)c2)cc1-c1ccc2nc(NCCN3CCOCC3)ncc2c1` [AMG-47a], the “AC50 for growth inhibition (log10 M)” value is -5.28 in experiment [1] and -5.03 in experiment [2].

`COC1=C(OCCCN2CCOCC2)C=C3N=CC=C(OC4=CC=C(C=C4F)\C5=C\N=C(\NC6=CC=C(F)C=C6)N(C)C5=O)C3=C1` [AMG-51]: the “AC50 for growth inhibition (log10 M)” value in experiment [1] is -5.03; in experiment [2], -4.73.

As to `CNc1nccc(-c2cccnc2Oc2cc(C(=O)Nc3cccc(C(F)(F)F)c3)ccc2C)n1` [AMG-Tie2-1], the “AC50 for growth inhibition (log10 M)” value in experiment [1] is -4.83; in experiment [2], -4.63.

For the compound `CC1=CC=C(C=C1)\C2=N\C3=CC=C(Cl)C=C3OC2` [AR7], the “AC50 for growth inhibition (log10 M)” value in experiment [1] and in experiment [2] was -5.03 each time.

For `CNC(=O)c1ccc(N2C(=S)N(c3cnc(C#N)c(C(F)(F)F)c3)C(=O)C23CCC3)cc1F` [ARN-509], the “AC50 for growth inhibition (log10 M)” value in experiment [1] is -6.53; in experiment [2], -6.08.

Turning to `C[C@H]1[C@@H](CC(C[C@H]2O[C@@H]3O[C@]4(C)CC[C@H]5[C@H](C)CC[C@@H]([C@H]2C)[C@@]35OO4)C[S+](=O)([O-])c2ccc(COC(=O)N(C)C)cc2)O[C@@H]2O[C@]3(C)CC[C@H]4[C@H](C)CC[C@@H]1[C@@]24OO3` [ASR-isobudimer-SO2Ph-4-CH2OC(O)NMe2], the “AC50 for growth inhibition (log10 M)” value is -6.93 in experiment [1] and -6.48 in experiment [2].

In the case of `C=CC(=O)Nc1ccc2ncnc(Nc3ccc(OCc4cccc(F)c4)c(Cl)c3)c2c1` [AST-1306], the “AC50 for growth inhibition (log10 M)” value is -5.28 in experiment [1] and -8.33 in experiment [2].

Consider `CN[C@@H](C)C(=O)N[C@H]1CN(C(=O)CC(C)C)CC[C@H]2CC[C@@H](C(=O)NC(c3ccccc3)c3ccccc3)N2C1=O` [AT-406], for which the “AC50 for growth inhibition (log10 M)” value was -5.63 in experiment [1] and -4.98 in experiment [2].

In the case of `O=C(NC1CCNCC1)c1n[nH]cc1NC(=O)c1c(Cl)cccc1Cl` [AT-7519], the “AC50 for growth inhibition (log10 M)” value in experiment [1] is -7.18; in experiment [2], -6.68.

On to `Clc1ccc(C2(c3ccc(-c4cn[nH]c4)cc3)CCNCC2)cc1` [AT-7867], for which the “AC50 for growth inhibition (log10 M)” value was -4.88 in experiment [1] and -4.73 in experiment [2].

`O=C(Nc1c[nH]nc1-c1nc2cc(CN3CCOCC3)ccc2[nH]1)NC1CC1` [AT-9283]: the results for the “AC50 for growth inhibition (log10 M)” value in experiment [1] and in experiment [2] were -6.18 and -5.38, respectively.

For the compound `C=CC(=O)Nc1cc2c(Nc3ccc(F)c(Cl)c3)ncnc2cc1C#CC(C)(C)N1CCN(C)CC1` [AV-412], the entries for the “AC50 for growth inhibition (log10 M)” value in experiment [1] and in experiment [2] were -5.53 and -5.08, respectively.

Regarding `CC[C@H](CC#N)OC(=O)N[C@@H](C)c1cccc(NC(=O)Nc2ccc(-c3cnco3)c(OC)c2)c1` [AVN-944], the “AC50 for growth inhibition (log10 M)” value in experiment [1] is -5.88; in experiment [2] it was -5.23.

In the case of `Cc1cc(Nc2nc(N[C@@H](C)c3ccc(F)cc3)c(C#N)cc2F)n[nH]1` [AZ-960], the “AC50 for growth inhibition (log10 M)” value was -4.73 in experiment [1] and -4.68 in experiment [2].

With `NC(=O)Nc1cc(-c2ccc(CN3CCOCC3)cc2)sc1C(N)=O` [AZ-TAK1 Inhibitor], the “AC50 for growth inhibition (log10 M)” value in experiment [1] was -4.68; in experiment [2], -4.73.

For `CNC(=O)c1cccc(-c2ccc3c(N4CCOC[C@@H]4C)nc(N4CCOC[C@@H]4C)nc3n2)c1` [AZD-2014], the “AC50 for growth inhibition (log10 M)” value in experiment [1] is -7.33; in experiment [2] it was -7.03.

Take `NC1(C(=O)N[C@@H](CCO)c2ccc(Cl)cc2)CCN(c2ncnc3[nH]ccc23)CC1` [AZD-5363]: the entries for the “AC50 for growth inhibition (log10 M)” value in experiment [1] and in experiment [2] were -5.23 and -5.08, respectively.

Turning to `C[C@@H](NC1=CC=CC=C1C(O)=O)C/2=C/C(=C\N3C(=O)/C=C(\N=C23)N4CCOCC4)C` [AZD-6482], the “AC50 for growth inhibition (log10 M)” value was -4.82 in experiment [1] and -4.87 in experiment [2].

With `CN(C)C(=O)c1ccc([S+](=O)([O-])c2ccc(NC(=O)[C@@](C)(O)C(F)(F)F)c(Cl)c2)cc1` [AZD-7545], the “AC50 for growth inhibition (log10 M)” value in experiment [1] was -4.88; in experiment [2], -4.73.

Take `COc1ccc(-c2ccc3c(N4CCOC[C@@H]4C)nc(N4CCOC[C@@H]4C)nc3n2)cc1CO` [AZD-8055]: the “AC50 for growth inhibition (log10 M)” value was -7.83 in experiment [1] and -5.98 in experiment [2].

Turning to `CN1C(=O)\C(=C/C(=C1/NC2=C(F)C=C(I)C=C2)C(=O)NOCCO)C` [AZD-8330], the figures for the “AC50 for growth inhibition (log10 M)” value in experiment [1] and in experiment [2] were -4.78 and -7.58, respectively.

With `CN(C)Cc1c(C(=O)NCCOc2ccc(C(=O)NO)cc2)oc2ccccc12` [Abexinostat], the figures for the “AC50 for growth inhibition (log10 M)” value in experiment [1] and in experiment [2] were -5.13 and -5.93, respectively.
